Measurements from PubChem BioAssay AID1918955 (Molecular Pharmacology Branch, DTP, NCI, 2023).
pIC50: −log10 of the molar value.

Test system: NCI/ADR-RES complex spheroid viability
Experiment: Anticancer human tumor NCI/ADR-RES cell line growth inhibition;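 for viability, T/C: 100% = DMSO vehicle treated spheroids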
Conditions: for pIC50: curve of first compound; for viability, T/C: stronger effect = lower value
How it was run: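 Complex spheroids of tumor cells with HUVEC and human MSCs, exposed to iadademstat combined with other agents. Each agent tested in half-log steps from near clinical Cmax (else 10 microM top), DMSO ≤0.25%.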

[1] = second compound 0.1 µM, first compound 0.0316 µM
[2] = second compound 0.1 µM, first compound 0.1 µM
[3] = second compound 0.1 µM, first compound 0.316 µM
[4] = second compound 0.1 µM, first compound 1 µM
[5] = second compound 0.1 µM, first compound 3.16 µM
[6] = second compound 0.1 µM, first compound 10 µM
[7] = second compound 0.316 µM, first compound 0.0316 µM
[8] = second compound 0.316 µM, first compound 0.1 µM
[9] = second compound 0.316 µM, first compound 0.316 µM
[10] = second compound 0.316 µM, first compound 1 µM
[11] = second compound 0.316 µM, first compound 3.16 µM
[12] = second compound 0.316 µM, first compound 10 µM
[13] = second compound 1 µM, first compound 0.0316 µM
[14] = second compound 1 µM, first compound 0.1 µM
[15] = second compound 1 µM, first compound 0.316 µM
[16] = second compound 1 µM, first compound 1 µM
[17] = second compound 1 µM, first compound 3.16 µM
[18] = second compound 1 µM, first compound 10 µM
[19] = second compound 3.16 µM, first compound 0.0316 µM
[20] = second compound 3.16 µM, first compound 0.1 µM
[21] = second compound 3.16 µM, first compound 0.316 µM
[22] = second compound 3.16 µM, first compound 1 µM
[23] = second compound 3.16 µM, first compound 3.16 µM
[24] = second compound 3.16 µM, first compound 10 µM
[25] = second compound 10 µM, first compound 0.0316 µM
[26] = second compound 10 µM, first compound 0.1 µM
[27] = second compound 10 µM, first compound 0.316 µM
[28] = second compound 10 µM, first compound 1 µM
[29] = second compound 10 µM, first compound 3.16 µM
[30] = second compound 10 µM, first compound 10 µM
[31] = second compound 0.1 µM, first compound 0.00316 µM
[32] = second compound 0.1 µM, first compound 0.01 µM
[33] = second compound 0.316 µM, first compound 0.00316 µM
[34] = second compound 0.316 µM, first compound 0.01 µM
[35] = second compound 1 µM, first compound 0.00316 µM
[36] = second compound 1 µM, first compound 0.01 µM
[37] = second compound 3.16 µM, first compound 0.00316 µM
[38] = second compound 3.16 µM, first compound 0.01 µM
[39] = second compound 10 µM, first compound 0.00316 µM
[40] = second compound 10 µM, first compound 0.01 µM

CC(C)c1c(-c2ccccc2)nc2c(C#N)c[nH]n2c1=O + NC1CCC(NC2CC2c2ccccc2)CC1
pIC50 (second compound 0.1 µM): < 5.00 | pIC50 (second compound 0.316 µM): < 5.00 | pIC50 (second compound 1 µM): < 5.00 | pIC50 (second compound 3.16 µM): < 5.00 | pIC50 (second compound 10 µM): < 5.00 | viability, T/C [1]: 102% | viability, T/C [2]: 111% | viability, T/C [3]: 109% | viability, T/C [4]: 100% | viability, T/C [5]: 99.1% | viability, T/C [6]: 105% | viability, T/C [7]: 102% | viability, T/C [8]: 112% | viability, T/C [9]: 105% | viability, T/C [10]: 113% | viability, T/C [11]: 103% | viability, T/C [12]: 98.4% | viability, T/C [13]: 108% | viability, T/C [14]: 111% | viability, T/C [15]: 110% | viability, T/C [16]: 107% | viability, T/C [17]: 104% | viability, T/C [18]: 104% | viability, T/C [19]: 105% | viability, T/C [20]: 104% | viability, T/C [21]: 108% | viability, T/C [22]: 107% | viability, T/C [23]: 105% | viability, T/C [24]: 97.3% | viability, T/C [25]: 105% | viability, T/C [26]: 98.9% | viability, T/C [27]: 98.6% | viability, T/C [28]: 97.5% | viability, T/C [29]: 97.1% | viability, T/C [30]: 91.5%

CC1COCCN1c1cc(-c2ccnn2C)c2ccnc(-c3ccn[nH]3)c2n1 (stereo not given) + NC1CCC(NC2CC2c2ccccc2)CC1
pIC50 (second compound 0.1 µM): 7.81 | pIC50 (second compound 0.316 µM): 7.79 | pIC50 (second compound 1 µM): 7.78 | pIC50 (second compound 3.16 µM): 7.86 | pIC50 (second compound 10 µM): 8.13 | viability, T/C [31]: 99.8% | viability, T/C [32]: 70.3% | viability, T/C [1]: 17.4% | viability, T/C [2]: 4.62% | viability, T/C [3]: 5.9% | viability, T/C [4]: 8.55% | viability, T/C [33]: 101% | viability, T/C [34]: 74.4% | viability, T/C [7]: 16.8% | viability, T/C [8]: 2.98% | viability, T/C [9]: 2.91% | viability, T/C [10]: 2.82% | viability, T/C [35]: 102% | viability, T/C [36]: 74.6% | viability, T/C [13]: 18.8% | viability, T/C [14]: 3.17% | viability, T/C [15]: 7.14% | viability, T/C [16]: 10.6% | viability, T/C [37]: 92.1% | viability, T/C [38]: 65.6% | viability, T/C [19]: 10.3% | viability, T/C [20]: 2.4% | viability, T/C [21]: 6% | viability, T/C [22]: 2.76% | viability, T/C [39]: 83.9% | viability, T/C [40]: 38.2% | viability, T/C [25]: 11.9% | viability, T/C [26]: 2.97% | viability, T/C [27]: 1.89% | viability, T/C [28]: 2.07%

CC1COCCN1c1cc(C2(S(C)(=N)=O)CC2)nc(-c2ccnc3[nH]ccc23)n1 (stereo not given) + NC1CCC(NC2CC2c2ccccc2)CC1
pIC50 (second compound 0.1 µM): < 5.00 | pIC50 (second compound 0.316 µM): < 5.00 | pIC50 (second compound 1 µM): 5.07 | pIC50 (second compound 3.16 µM): 5.10 | pIC50 (second compound 10 µM): 5.28 | viability, T/C [1]: 98.9% | viability, T/C [2]: 104% | viability, T/C [3]: 105% | viability, T/C [4]: 95.6% | viability, T/C [5]: 82.8% | viability, T/C [6]: 50.5% | viability, T/C [7]: 101% | viability, T/C [8]: 98.8% | viability, T/C [9]: 102% | viability, T/C [10]: 94.5% | viability, T/C [11]: 71.8% | viability, T/C [12]: 55.5% | viability, T/C [13]: 104% | viability, T/C [14]: 102% | viability, T/C [15]: 97.6% | viability, T/C [16]: 97.5% | viability, T/C [17]: 84.5% | viability, T/C [18]: 44.2% | viability, T/C [19]: 96.4% | viability, T/C [20]: 96.8% | viability, T/C [21]: 94.6% | viability, T/C [22]: 84.4% | viability, T/C [23]: 68.6% | viability, T/C [24]: 45% | viability, T/C [25]: 98.4% | viability, T/C [26]: 92.7% | viability, T/C [27]: 89.7% | viability, T/C [28]: 83.8% | viability, T/C [29]: 61.3% | viability, T/C [30]: 34.6%

COc1ccc([C@@H](O)c2cc(-c3ncnc4cc(N5CCOCC5)ccc34)c(F)cc2Cl)nn1 + NC1CCC(NC2CC2c2ccccc2)CC1
pIC50 (second compound 0.1 µM): 5.44 | pIC50 (second compound 0.316 µM): 5.40 | pIC50 (second compound 1 µM): 5.51 | pIC50 (second compound 3.16 µM): 5.53 | pIC50 (second compound 10 µM): 5.69 | viability, T/C [1]: 102% | viability, T/C [2]: 90.2% | viability, T/C [3]: 91.8% | viability, T/C [4]: 89.8% | viability, T/C [5]: 52.8% | viability, T/C [6]: 26.9% | viability, T/C [7]: 108% | viability, T/C [8]: 105% | viability, T/C [9]: 89.7% | viability, T/C [10]: 82.7% | viability, T/C [11]: 53.5% | viability, T/C [12]: 28.2% | viability, T/C [13]: 102% | viability, T/C [14]: 97.8% | viability, T/C [15]: 90.6% | viability, T/C [16]: 74.1% | viability, T/C [17]: 49.5% | viability, T/C [18]: 27.9% | viability, T/C [19]: 101% | viability, T/C [20]: 105% | viability, T/C [21]: 93.6% | viability, T/C [22]: 73.3% | viability, T/C [23]: 50% | viability, T/C [24]: 28.5% | viability, T/C [25]: 89.7% | viability, T/C [26]: 86.3% | viability, T/C [27]: 85.6% | viability, T/C [28]: 64.8% | viability, T/C [29]: 41.2% | viability, T/C [30]: 24.2%

Nc1ncn(C2CC(O)C(CO)S2)c(=O)n1 (stereo not given) + NC1CCC(NC2CC2c2ccccc2)CC1
pIC50 (second compound 0.1 µM): 7.76 | pIC50 (second compound 0.316 µM): 7.90 | pIC50 (second compound 1 µM): 7.86 | pIC50 (second compound 3.16 µM): 8.05 | pIC50 (second compound 10 µM): 8.19 | viability, T/C (second compound 0.1 µM, first compound 0.000949 µM): 99.2% | viability, T/C (second compound 0.1 µM, first compound 0.003 µM): 76.1% | viability, T/C (second compound 0.1 µM, first compound 0.00949 µM): 60.2% | viability, T/C (second compound 0.1 µM, first compound 0.03 µM): 41.5% | viability, T/C (second compound 0.1 µM, first compound 0.0949 µM): 25.3% | viability, T/C (second compound 0.1 µM, first compound 0.3 µM): 6.6% | viability, T/C (second compound 0.316 µM, first compound 0.000949 µM): 106% | viability, T/C (second compound 0.316 µM, first compound 0.003 µM): 79.3% | viability, T/C (second compound 0.316 µM, first compound 0.00949 µM): 56.2% | viability, T/C (second compound 0.316 µM, first compound 0.03 µM): 34% | viability, T/C (second compound 0.316 µM, first compound 0.0949 µM): 17.1% | viability, T/C (second compound 0.316 µM, first compound 0.3 µM): 6.79% | viability, T/C (second compound 1 µM, first compound 0.000949 µM): 99.9% | viability, T/C (second compound 1 µM, first compound 0.003 µM): 80.3% | viability, T/C (second compound 1 µM, first compound 0.00949 µM): 57% | viability, T/C (second compound 1 µM, first compound 0.03 µM): 35% | viability, T/C (second compound 1 µM, first compound 0.0949 µM): 18.6% | viability, T/C (second compound 1 µM, first compound 0.3 µM): 4.76% | viability, T/C (second compound 3.16 µM, first compound 0.000949 µM): 102% | viability, T/C (second compound 3.16 µM, first compound 0.003 µM): 66.1% | viability, T/C (second compound 3.16 µM, first compound 0.00949 µM): 46.6% | viability, T/C (second compound 3.16 µM, first compound 0.03 µM): 37.1% | viability, T/C (second compound 3.16 µM, first compound 0.0949 µM): 17.7% | viability, T/C (second compound 3.16 µM, first compound 0.3 µM): 4.6% | viability, T/C (second compound 10 µM, first compound 0.000949 µM): 85.1% | viability, T/C (second compound 10 µM, first compound 0.003 µM): 57.3% | viability, T/C (second compound 10 µM, first compound 0.00949 µM): 43.7% | viability, T/C (second compound 10 µM, first compound 0.03 µM): 31% | viability, T/C (second compound 10 µM, first compound 0.0949 µM): 13.9% | viability, T/C (second compound 10 µM, first compound 0.3 µM): 3.33%

O=C(C=Cn1cnc(-c2cc(C(F)(F)F)cc(C(F)(F)F)c2)n1)NNc1cnccn1 + NC1CCC(NC2CC2c2ccccc2)CC1
pIC50 (second compound 0.1 µM): 8.19 | pIC50 (second compound 0.316 µM): 8.24 | pIC50 (second compound 1 µM): 8.24 | pIC50 (second compound 3.16 µM): 8.31 | pIC50 (second compound 10 µM): 8.46 | viability, T/C [31]: 80.1% | viability, T/C [32]: 29.1% | viability, T/C [1]: 17.7% | viability, T/C [2]: 13.6% | viability, T/C [3]: 5.76% | viability, T/C [4]: 2.44% | viability, T/C [33]: 72.3% | viability, T/C [34]: 26.2% | viability, T/C [7]: 18.8% | viability, T/C [8]: 21.9% | viability, T/C [9]: 4.73% | viability, T/C [10]: 1.86% | viability, T/C [35]: 72.3% | viability, T/C [36]: 27.6% | viability, T/C [13]: 17.8% | viability, T/C [14]: 11.6% | viability, T/C [15]: 8.01% | viability, T/C [16]: 3.34% | viability, T/C [37]: 65% | viability, T/C [38]: 24.6% | viability, T/C [19]: 15.9% | viability, T/C [20]: 7.79% | viability, T/C [21]: 4.6% | viability, T/C [22]: 2.43% | viability, T/C [39]: 52.9% | viability, T/C [40]: 20.5% | viability, T/C [25]: 9.74% | viability, T/C [26]: 5.15% | viability, T/C [27]: 3.07% | viability, T/C [28]: 1.56%
